# “Also recorded” adds a separate entry of the source. Like-named read-outs stand apart in the source and are kept apart here.
# How the values were obtained:
# [1] = type: in vivo, cynomolgus monkeys
# Procedure: Compound A (10-100 mg/kg) was administered orally to cynomolgus monkeys and blood specimens were collected prior to dose administration and at target time points of 0.5, 1, 3, 5, 8, and 24 hours post-dose administration. Blood was collected via the femoral vein into tubes containing tripotassium ethylene-diamine-tetraacetic acid (K3EDTA) as the anticoagulant. Whole blood was centrifuged to obtain plasma (9000×g for 10 minutes at 4° C.) which was transferred into labeled tubes and stored at −80° C. Plasma calibration standards, blanks, and study samples were processed by protein precipitation. To a 50 μL aliquot 150 μL of a 10 ng/mL solution of an internal standard and 150 μL of acetonitrile was added. The mixture was eluted using positive pressure and analyzed by liquid chromatography/mass spectrometry/mass spectrometry with m/z transition of 462-417. Compound A concentrations were calculated using area response ratios and a regression line constructed from the concentrations and peak area response ratios of the calibration standards. […]. The lower limit of quantification (LLOQ) for the plasma method is approximately 0.5 ng/mL and the upper limit of quantification (ULOQ) is approximately 1000 ng/mL extracted from plasma using a 50-μL aliquot of sample.
# As such, a pharmacokinetic and observational study was conducted in cynomologous monkeys (FIG. 16). Plasma concentrations of Compound A were measured following a single oral dose of 10, 50 and 100 mg/kg up to 24 hours post-dosing (FIGS. 16A, B and C).
# Sprague-Dawley rats [2] = test: Gastric emptying of a test meal in rats; type: in vivo, rat
# Procedure: Rats were fasted overnight (16-18 hours) with free access to water. The next morning, compound was administered and animals were individually housed in bedding-free cages with pre-weighed food available ad libitum and access to water for 2 hours. The water and food were then removed and the remaining food was re-weighed. Gastric emptying of the ingested meal was assessed 4 hours later. Animals were euthanized by CO2 inhalation followed by thoracotomy. The abdominal cavity was opened, the pylorus and cardia were clamped and the stomach was removed. The excised stomach was weighed and then opened along the greater curvature, rinsed with tap water, lightly dried and re-weighed. The amount of food in the stomach (grams) was estimated based on the difference between the total weight of the stomach plus its contents and the weight of the stomach after the contents were removed. The meal ingested (food intake) was determined by the difference between pre- and post-feeding weight at the end of the 2 hour period. Gastric emptying during the 4 hour experiment is represented as: Gastric emptying=[1−(gastric content/food intake)]×100. Gastric Secretion
# Male, Sprague-Dawley rats (weighing between 229-264 g each and 4 rats per test group) were fasted overnight (19 hours). The rats were then orally administered 10 mg/kg, 30 mg/kg or 100 mg/kg of Compound A with a 0.5% MC or Capryol:Solutol:Polyethyleneglycol (CSP) vehicle or with a 0.5% MC or CSP vehicle alone. The rats were then placed in individual, bedding-free cages and allowed ad libitium access to pre-weighed food and water for two hours. The food and water were then removed and the food was reweighed. Gastric emptying was then assessed four hours later by euthanizing the rats and analyzing the stomach and stomach contents. […] Data are represented as the means+the standard error of the means (S.E.M). % Gastric Emptying in 4 hours=(1−(gastric content/food intake))×100. […] Data are represented as the means+S.E.M.
# Male, Sprague-Dawley rats (weighing between 235-268 g each and 4-6 rats per test group) were fasted overnight (19 hours). The rats were then subcutaneously administered 10 mg/kg, 30 mg/kg or 100 mg/kg of carbamazepine (Compound B) with a 25% HPBCD vehicle or with a 25% HPBCD vehicle alone. Some test animals were not dosed (i.e., naïve). The rats were then placed in individual, bedding-free cages and allowed ad libitium access to pre-weighed food and water for two hours. The food and water were then removed and the food was reweighed. […] Data are represented as the means+S.E.M. % Gastric Emptying in 4 hours=(1−(gastric content/food intake))×100.
# Male, Sprague-Dawley rats (weighing between 238-274 g each and 6 rats per test group) were fasted overnight (19 hours). The rats were then orally administered 30 mg/kg, 100 mg/kg or 300 mg/kg of carbamazepine (Compound B) with a 0.5% MC vehicle or with a 0.5% MC vehicle alone. The rats were then placed in individual, bedding-free cages and allowed ad libitium access to pre-weighed food and water for two hours. The food and water were then removed and the food was reweighed. […] Data are represented as the means+S.E.M. % Gastric Emptying in 4 hours=(1−(gastric content/food intake))×100.
# Male, Sprague-Dawley rats (weighing between 235-276 g each and 4-6 rats per test group) were fasted overnight (19 hours).
# Sprague-Dawley rats [3] = test: Gastrointestinal transit, charcoal meal assay; type: in vivo, rat
# Procedure: Small intestinal transit was measured based on a known method which involved the oral administration of a charcoal meal (Gmerek et al. (1986). “Independent central and peripheral mediation of morphine-induced inhibition of gastrointestinal transit in rats.” J Pharmacol Exp Ther 236(1): 8-13). Rats were fasted with free access to water for 18 hours. Test compound or vehicle was dosed prior to oral administration of a charcoal slurry containing activated charcoal, flour and water in a ratio of 1:2:7.5 (10 ml/kg orally). One hour after receiving the charcoal slurry, rats were euthanized by CO2 asphyxiation. The stomach and GI tract was excised from each animal. Whole stomach weight was recorded and the length of the small intestine (cm) (stomach to cecum) and the distance (cm) to the leading edge of charcoal was measured. Small intestinal transit data are expressed as a percentage of the distance traveled (i.e. % small intestinal transit=(distance charcoal traveled)/(total length of small intestine (stomach to cecum)×100). Pretreatment times were determined on the basis of pharmacokinetic data (not shown) and were as follows: Compound A, 60 minutes, Compound C, 60 minutes; carbamazepine, 60 minutes. Morphine was administered with a pretreatment time of 30 mins based on previous experience.
# [4] = naïve rats, p.o. 100 mg/kg, 0.5% MC (Example 13)
# [5] = p.o. 10, 30, 100 mg/kg, 0.5% MC or CSP vehicle (Example 1)
compound,measurement,setting,value
C[C@H](Nc1cc(C(N)=O)nc(-c2ccc(Oc3ccc(OC(F)(F)F)cc3)cc2)n1)C(N)=O [Compound A],time up to which plasma concentration continued increasing,"[1]; monkey, p.o. 10 mg/kg",8 h
same,time up to which plasma concentration continued increasing,"[1]; monkey, p.o. 50 mg/kg and 100 mg/kg",24 h
same,plasma levels versus dose,"[1]; monkey, single oral dose of 10, 50 and 100 mg/kg",increased with increasing dose in an approximately linear fashion
same,plasma concentrations,"[1]; monkey, single oral dose of 10, 50 and 100 mg/kg, up to 24 hours",measurable at all doses
same,plasma level of the individual monkey presenting the highest plasma levels,"[1]; p.o., at 24 hrs",over 3000 ng/ml
same,% Gastric Emptying in 4 hours,"Sprague-Dawley rats [2]; Compound A 3 mg/kg s.c. alone, 25% HPBCD (Examples 11, 12), 3 mg/kg",inhibits the percent of gastric emptying independently
same,gastric emptying,Sprague-Dawley rats [2]; administered subcutaneously (Example 9),decrease in gastric emptying
same,gastric emptying inhibition potency of Compound A with a CSP vehicle compared to Compound D in 25% HPBCD,Sprague-Dawley rats [2]; all dosages tested,maintains a greater gastric emptying inhibition potency as compared to Compound D
same,gastric emptying inhibition potency compared between compounds,"Sprague-Dawley rats [2]; comparison at equal or similar dosages, routes and vehicles",greater gastric emptying inhibition potency than Compound B; also recorded: greater gastric emptying inhibition potency when compared to Compound B; also recorded: greater gastric emptying inhibition potency at lower dosages; also recorded: highest in vivo potency
same,gastric emptying,"Sprague-Dawley rats [2]; lowest dose tested orally, 10 mg/kg",~0%
same,% Gastric Emptying in 4 hours,Sprague-Dawley rats [2]; [4],statistically significant decrease in gastric emptying
same,stomach weight,Sprague-Dawley rats [2]; [4],increase in stomach weight
same,% Gastric Emptying in 4 hours,Sprague-Dawley rats [2]; [5],increased inhibition of gastric emptying
same,stomach weight,Sprague-Dawley rats [2]; [5],increased stomach weight
same,"gastric emptying inhibition and stomach weight increase, CSP vehicle compared to 0.5% MC vehicle",Sprague-Dawley rats [2]; p.o. 10-100 mg/kg (Example 1),greater inhibiting effect on gastric emptying and stomach weight increase was observed with a CSP vehicle
same,food intake,"Sprague-Dawley rats [2]; rat, in vivo",decreased food intake
same,stomach weight,"Sprague-Dawley rats [2]; rat, in vivo",increased stomach weight
same,stomach weight and food intake,"Sprague-Dawley rats [2]; rat, in vivo",comparable to that of Compound A alone
same,"increase in potency on gastric emptying, subcutaneous as compared to oral administration",Sprague-Dawley rats [2]; s.c. vs p.o.,3-10 fold
same,food intake,"Sprague-Dawley rats [2]; vagotomized and naïve rats, p.o. 100 mg/kg (Example 13)",Food intake is inhibited
same,stomach weight,"Sprague-Dawley rats [2]; vagotomized rats, p.o. 100 mg/kg, 0.5% MC, vs vagotomy alone (Example 13)",not statically significantly different from vagotomy alone
same,% Gastric Emptying in 4 hours,"Sprague-Dawley rats [2]; vagotomized rats, p.o. 100 mg/kg, 0.5% MC, vs vagotomy alone (Example 13), 100 mg/kg",numerically additive effect on the inhibition of gastric emptying but not a statistically significant effect; also recorded: not statically significantly different from vagotomy alone
same,dosage level with significant effect on stomach weight,Sprague-Dawley rats [3]; charcoal meal assay,100 mg/kg
same,stomach weight,"Sprague-Dawley rats [3]; charcoal meal assay, vs vehicle treated animals",statistically significant increase in stomach weight
same,gastrointestinal transit (% small intestinal transit),"Sprague-Dawley rats [3]; charcoal meal, 60 minutes pretreatment, vs vehicle",No statistically significant decrease in gastrointestinal transit

# From patent US10143696B2, “Methods and compositions for decreasing gastric emptying” (priority 2015, dated 2018)
